Assay results as given in US20140303164A1, “THERAPEUTIC COMPOUNDS” (Gilead Sciences, Inc., priority 2013, published 2014).

Experiments:
[1] = tested on: HIV-IIIb; assay: Test A: Antiviral Assay in MT4 Cells; assay type: cell-based, HIV-1; settings: Human immunodeficiency virus 1, IIIB, MT4, 120 h; for inhibition at 0.2 µM: read-out: % inhibition at 0.2 μM; for inhibition at 2 µM: read-out: % inhibition at 2 μM
Protocol: Test A: Antiviral Assay in MT4 Cells
MT-4 cells were next mixed with HIV-IIIb at an m.o.i of 0.003 for 1 hour, after which time 35 μL of virus/cell mixture (2000 cells) was immediately added to each well containing 40 μL of diluted compound. The plates were then incubated at 37° C. for 5 days. […] Cell lysis was carried out by incubating at room temperature for 10 min and then chemiluminescence was read.

[2] = Test B: Cytotoxicity Assay; assay type: cell-based; settings: human, uninfected MT-4 cells, same protocol as Test A
In short: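 Uninfected MT-4 cells (2000 per well) incubated with diluted compound at 37° C. for 5 days, following the antiviral protocol without HIV-IIIb.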

SMILES	inhibition at 0.2 µM [1] [%]	inhibition at 2 µM [1] [%]	CC50 at 5 days [2] [µM]
CNc1nnc2c(-c3ccc(C#CC(C)(C)O)nc3[C@H](Cc3cc(F)cc(F)c3)NC(=O)Cn3nc(C(F)F)c4c3C(F)(F)[C@@H]3C[C@H]43)cccn12 [Compound 76F, 2-((3bS,4aR)-3-(difluoromethyl)-5,5-difluoro-3b,4,4a,5-tetrahydro-1H-cyclopropa[3,4]cyclopenta[1,2-c]pyrazol-1-yl)-N—((S)-2-(3,5-difluorophenyl)-1-(6-(3-hydroxy-3-methylbut-1-yn-1-yl)-3-(3-(methylamino)-[1,2,4]triazolo[4,3-a]pyridin-8-yl)pyridin-2-yl)ethyl)acetamide]	98	98	22.6
CCNc1nn(C)c2c(-c3ccc(C#CC(C)(C)O)nc3[C@H](Cc3cc(F)cc(F)c3)NC(=O)Cn3nc(C(F)F)c4c3C(F)(F)[C@@H]3C[C@H]43)ccc(Cl)c12 [Compound 91E, N—((S)-1-(3-(4-chloro-3-(ethylamino)-1-methyl-1H-indazol-7-yl)-6-(3-hydroxy-3-methylbut-1-yn-1-yl)pyridin-2-yl)-2-(3,5-difluorophenyl)ethyl)-2-((3b-S,4aR)-3-(difluoromethyl)-5,5-difluoro-3b,4,4a,5-tetrahydro-1H-cyclopropa[3,4]cyclopenta[1,2-c]pyrazol-1-yl)acetamide]	100	100	9.38
Cn1cnc(-c2ccc(-c3ccc(Cl)c4c(NS(C)(=O)=O)nn(C)c34)c([C@H](Cc3cc(F)cc(F)c3)NC(=O)Cn3nc(C(F)(F)F)c4c3C(F)(F)[C@@H]3C[C@H]43)n2)c1 [Compound 179, N—((S)-1-(3-(4-chloro-1-methyl-3-(methylsulfonamido)-1H-indazol-7-yl)-6-(1-methyl-1H-imidazol-4-yl)pyridin-2-yl)-2-(3,5-difluorophenyl)ethyl)-2-((3b-S,4aR)-5,5-difluoro-3-(trifluoromethyl)-3b,4,4a,5-tetrahydro-1H-cyclopropa[3,4]cyclopenta[1,2-c]pyrazol-1-yl)acetamide]	100	100	15.5
CC(C)(C)C#Cc1ccc(-c2ccc(Cl)n3c(NS(C)(=O)=O)nnc23)c([C@H](Cc2cc(F)cc(F)c2)NC(=O)Cn2nc(C(F)F)c3c2C(F)(F)[C@@H]2C[C@H]32)n1 [Compound 118, N—((S)-1-(3-(5-chloro-3-(methylsulfonamido)-[1,2,4]triazolo[4,3-a]pyridin-8-yl)-6-(3,3-dimethylbut-1-yn-1-yl)pyridin-2-yl)-2-(3,5-difluorophenyl)ethyl)-2-((3b-S,4aR)-3-(difluoromethyl)-5,5-difluoro-3b,4,4a,5-tetrahydro-1H-cyclopropa[3,4]cyclopenta[1,2-c]pyrazol-1-yl)acetamide]	96	96	23.9
Cn1nc(NS(C)(=O)=O)c2cccc(-c3ccc(C#CC(C)(C)N)nc3[C@H](Cc3cc(F)cc(F)c3)NC(=O)Cn3nc(C(F)(F)F)c4c3C(F)(F)[C@@H]3C[C@H]43)c21 [Compound 104, N—((S)-1-(6-(3-amino-3-methylbut-1-yn-1-yl)-3-(1-methyl-3-(methylsulfonamido)-1H-indazol-7-yl)pyridin-2-yl)-2-(3,5-difluorophenyl)ethyl)-2-((3bS,4aR)-5,5-difluoro-3-(trifluoromethyl)-3b,4,4a,5-tetrahydro-1H-cyclopropa[3,4]cyclopenta[1,2-c]pyrazol-1-yl)acetamide]	100	100	7.46
